Like-named read-outs stand apart in the source and are kept apart here.
What was measured:
[1] = system: C. albicans; assay: Sustained inhibition biofilm assay, fungal; format: cell-based, Candida albicans
Description: (§1) Two types of biofilm assays were performed: a sustained inhibition assay and a disruption assay. The sustained inhibition assay assesses the compound's ability to prevent biofilm development throughout all stages of biofilm formation, while the disruption assay assesses the compound's ability to break up an existing mature biofilm. These assays are described in detail in the following article: Lohse, M. B., Gulati, M., Valle Arevalo, A., Fishburn, A., Johnson, A. D., and Nobile, C. […] Antimicrobial Agents and Chemotherapy 61: e02749-16.
(§2) All bacterial biofilm solutions were prepared in Trypic Soy Broth (TSB), supplemented with 1% glucose (henceforth referred to as TSB-G). All subsequent procedures were performed in a manner that maintained sterility. A solution of each amino acid to be tested was prepared in weight to volume concentrations ranging from 0.1-5.0%. Amino acids were also tested in combinations. Compound solutions were homogenized with gentle agitation in the dark (4° C., 24 hours) before use.
(§3) Fungal strains were streaked on Yeast Peptone Dextrose (YPD) agar plates and incubated at 30° C. for 48 hours. A single colony from each strain to be tested was inoculated into YPD broth and grown for 12 hours, at 30° C., shaking at 225 rpm. […] The cells were allowed to adhere to the plate for 90 minutes at 37° C. with shaking (350 rpm). […] The plate was further incubated for 24 hours at 37° C. with shaking (350 rpm). Media was carefully aspirated and the biofilm was measured by optical density at 600 nm. […] The cells were allowed to adhere to the plate for 90 minutes at 37° C. with shaking (350 rpm). […] The plate was further incubated for 24 hours at 37° C. with shaking (350 rpm). […] The plate was further incubated for 24 hours at 37° C. with shaking (350 rpm). Media was carefully aspirated and the biofilm was measured by optical density at 600 nm.

[2] = system: S. aureus; assay: Disruption biofilm assay, bacterial; format: cell-based, Staphylococcus aureus; conditions: Staphylococcus aureus; for inhibition at 1 %: 24 h, read-out: Reduce B Biofilm
Description: as §1, §2
(§4) Bacterial strains were streaked on Blood Agar plates (5% sheep blood in Tryptic Soy Agar) and incubated at 37° C. for 24 hours. A single colony from each strain to be tested was inoculated in a TSB broth and grown for 12 hours, at 37° C. with shaking (225 rpm). For the bacterial biofilm inhibition assays, 1 μL of saturated overnight cell culture was added to either 80 μL of TSB-G, or TSB-G supplemented with the amino acid compound solution to be tested, in a 384-well plate. The cells were allowed to adhere to the plate for 60 minutes at 37° C. without shaking. The media was carefully aspirated and 80 μL of TSB-G, or TSB-G supplemented with the amino acid compound solution was added to the plate. The plate was further incubated for 24 hours at 37° C. without shaking. Media was carefully aspirated and the biofilm was measured by optical density at 600 nm. Eight or twelve replicates were performed for each tested condition and the reported values are normalized to the control (TSB-G media only). For the bacterial biofilm disruption assays, 80 μL of TSB-G was added to the plate, along with 1 μL of overnight cell culture. The cells were allowed to adhere to the plate for 60 minutes at 37° C. with no shaking. The media was carefully aspirated and 80 μL of TSB-G was added to the plate. The plate was further incubated for 24 hours at 37° C. with no shaking. Media was carefully aspirated from the mature biofilm and 80 μL of TSB-G, or TSB-G supplemented with the amino acid to be tested, was gently added to the plate. The plate was further incubated for 24 hours at 37° C. without shaking. Media was aspirated and the biofilm was measured by optical density at 600 nm. Twelve replicates were performed for each tested condition and the reported values are normalized to the control (TSB-G media only).

[3] = system: fungal biofilms; assay: Biofilm assays (sustained inhibition and/or disruption), fungal biofilms; format: cell-based; conditions: in at least one of the two biofilm assays; for Anti-biofilm effect against fungal biofilms (reduction): administered individually
Description: (§5) Two types of biofilm assays were performed: a sustained inhibition assay and a disruption assay. The sustained inhibition assay assesses the compound's ability to prevent biofilm development throughout all stages of biofilm formation, while the disruption assay assesses the compound's ability to break up an existing mature biofilm. These assays are described in detail in the following article: Lohse, M. B., Gulati, M., Valle Arevalo, A., Fishburn, A., Johnson, A. D., and Nobile, C. J. (2017) Assessment and optimizations of Candida albicans in vitro biofilm assays. Antimicrobial Agents and Chemotherapy 61: e02749-16.
as §2, with “For fungal biofilm assays, all solutions were prepared in RPMI 1640 medium. All bacterial” for “All bacterial”
(§6) All biofilm assays were performed using 384-well non-tissue culture treated polystyrene plates. The fungal species tested are as follows: Candida albicans, Candida guilhermondii, Candida parapsilosis, Candida glabrata, Candida tropicalis, Candida dubliniensis, and Candida auris. The bacterial species tested are as follows: Staphylococcus aureus (standard wild type and methicillin-resistant strain USA300), Escherichia coli, Pseudomonas aeruginosa and Staphylococcus epidermidis.
(§7) Fungal strains were streaked on Yeast Peptone Dextrose (YPD) agar plates and incubated at 30° C. for 48 hours. A single colony from each strain to be tested was inoculated into YPD broth and grown for 12 hours, at 30° C., shaking at 225 rpm. For the fungal biofilm inhibition assay, 1 μl of saturated overnight cell culture was added to either 80 μL of RPMI-1640 or RPMI-1640 supplemented with the amino acid compound solution to be tested, in a 384-well plate. The cells were allowed to adhere to the plate for 90 minutes at 37° C. with shaking (350 rpm). Loosely bound cells were washed once with phosphate buffered saline (PBS) and 80 ul of RPMI-1640, or RPMI-1640 supplemented with the amino acid compound solution was added to the plate. The plate was further incubated for 24 hours at 37° C. with shaking (350 rpm). Media was carefully aspirated and the biofilm was measured by optical density at 600 nm. Twelve replicates were performed for each tested condition and the reported values are normalized to the control (RPMI-1640 media only). For the fungal biofilm disruption assays, 80 μL of RPMI-1640 was added to the plate, along with 1 μL of overnight cell culture. The cells were allowed to adhere to the plate for 90 minutes at 37° C. with shaking (350 rpm). Loosely bound cells were washed once with PBS and 80 μL of RPMI-1640 was added to the plate. The plate was further incubated for 24 hours at 37° C. with shaking (350 rpm). Media was carefully aspirated from the mature biofilm and 80 μL of RPMI-1640, or RPMI-1640 supplemented with the amino acid compound solution to be tested, was gently added to the plate. The plate was further incubated for 24 hours at 37° C. with shaking (350 rpm). Media was carefully aspirated and the biofilm was measured by optical density at 600 nm. Twelve replicates were performed for each tested condition and the reported values are normalized to the control (RPMI-1640 media only).

[4] = system: C. albicans; assay: Disruption biofilm assay, fungal; format: cell-based, Candida albicans
Description: as §1, §2, §3

[5] = system: S. aureus; assay: Sustained inhibition biofilm assay, bacterial; format: cell-based, Staphylococcus aureus
Description: as §1, §2, §4

[6] = system: bacteria (S. aureus) biofilm and fungal (C. albicans) biofilm; assay: Sustained inhibition biofilm assay, bacterial and fungal taken together; format: cell-based
Description: as §5
as §2, with “For fungal biofilm assays, all solutions were prepared in RPMI 1640 medium. All bacterial” for “All bacterial”
(§8) Fungal strains were streaked on Yeast Peptone Dextrose (YPD) agar plates and incubated at 30° C. for 48 hours. A single colony from each strain to be tested was inoculated into YPD broth and grown for 12 hours, at 30° C., shaking at 225 rpm. For the fungal biofilm inhibition assay, 1 μl of saturated overnight cell culture was added to either 80 μL of RPMI-1640 or RPMI-1640 supplemented with the amino acid compound solution to be tested, in a 384-well plate. […] Media was carefully aspirated and the biofilm was measured by optical density at 600 nm. […] Media was carefully aspirated and the biofilm was measured by optical density at 600 nm. […]
(§9) Bacterial strains were streaked on Blood Agar plates (5% sheep blood in Tryptic Soy Agar) and incubated at 37° C. for 24 hours. […] Media was carefully aspirated and the biofilm was measured by optical density at 600 nm. […]

[7] = system: bacteria (S. aureus) biofilm and fungal (C. albicans) biofilm; assay: Disruption biofilm assay, bacterial and fungal taken together; format: cell-based
Description: as §5
as §2, with “For fungal biofilm assays, all solutions were prepared in RPMI 1640 medium. All bacterial” for “All bacterial”
as §8, §9

[8] = system: fungal and bacterial biofilms; assay: Biofilm assays (sustained inhibition and disruption), fungal and bacterial biofilms; format: cell-based
Description: as §5
as §2, with “For fungal biofilm assays, all solutions were prepared in RPMI 1640 medium. All bacterial” for “All bacterial”
as §6, §7
Bacterial strains were streaked on Blood Agar plates (5% sheep blood in Tryptic Soy Agar) and incubated at 37° C. for 24 hours. A single colony from each strain to be tested was inoculated in a TSB broth and grown for 12 hours, at 37° C. with shaking (225 rpm).

[9] = Thermal stability in hot aqueous solution; format: physicochemical; conditions: water at about 90° C. to 100° C.
From the text: This ingredient is the non-essential amino acid glutamine.

[10] = system: bacterial biofilms; assay: Biofilm assays (sustained inhibition and/or disruption), bacterial biofilms; format: cell-based; conditions: in at least one of the two biofilm assays
Description: as §5
as §2, with “For fungal biofilm assays, all solutions were prepared in RPMI 1640 medium. All bacterial” for “All bacterial”
as §6, §4

[11] = sustained inhibition assay, C. albicans, 1% amino acid (unless specifically noted), p≤0.001
[12] = disruption assay, S. aureus, 1% amino acid (unless specifically noted), p≤0.001
[13] = disruption assay, C. albicans, 1% amino acid (unless specifically noted), p≤0.001

SMILES: Cn1cncc1C[C@H](N)C(=O)O [3-Methylhistidine, 3-methyl-L-histidine]
- Promote F Biofilm [1, 11]: ● (a single dot [ie. •] signifies minor effect (from about 10 to about 30% change))
- inhibition at 1 % [2, 12]: 10 to 30%
- Effect on fungal biofilm growth [3]: support (improve) fungal biofilm growth

SMILES: N[C@@H](CS)C(=O)O [Cysteine, L-cysteine]
- Reduce F Biofilm [1, 11]: ●● (two dots [ie. ••] signifies major effect (greater than about 30% change))
- Reduce F Biofilm [4, 13]: ●● (two dots [ie. ••] signifies major effect (greater than about 30% change))
- Reduce B Biofilm ([5]; sustained inhibition assay, S. aureus, 1% amino acid (unless specifically noted), p≤0.001): ●● (two dots [ie. ••] signifies major effect (greater than about 30% change))
- inhibition at 1 % [2, 12]: > 30%
- Reduce Both ([6]; sustained inhibition assay, bacterial and fungal biofilm, 1% amino acid (unless specifically noted), p≤0.001): ●● (two dots [ie. ••] signifies major effect (greater than about 30% change))
- Reduce Both ([7]; disruption assay, bacterial and fungal biofilm, 1% amino acid (unless specifically noted), p≤0.001): ●● (two dots [ie. ••] signifies major effect (greater than about 30% change))

SMILES: NCCO [Ethanolamine, ethanolamine]
- Reduce F Biofilm [1, 11]: ● (a single dot [ie. •] signifies minor effect (from about 10 to about 30% change))
- Anti-biofilm effect against fungal biofilms (reduction) [3]: less than twofold

SMILES: N[C@@H](CCC(=O)O)C(=O)O [Glutamic Acid, L-glutamic acid]
- Reduce F Biofilm [1]: ●● (two dots [ie. ••] signifies major effect (greater than about 30% change))
- Reduce F Biofilm [4]: ●● (two dots [ie. ••] signifies major effect (greater than about 30% change))
- Reduce B Biofilm [5]: ●● (two dots [ie. ••] signifies major effect (greater than about 30% change))
- inhibition at 1 % [2]: > 30%
- Reduce Both [6]: ●● (two dots [ie. ••] signifies major effect (greater than about 30% change))
- Reduce Both [7]: ●● (two dots [ie. ••] signifies major effect (greater than about 30% change))
- Effect on biofilms ([8]; single component on its own): very active against biofilms

SMILES: NC(=O)CC[C@H](N)C(=O)O [Glutamine, L-glutamine]
- Effect on bacterial or fungal biofilms in both assays ([8]; sustained inhibition and disruption): neutral
- Thermal degradation in aqueous solution [9]: highly susceptible to thermal degradation

SMILES: N[C@@H](COP(=O)(O)O)C(=O)O [Phosphoserine, O-phospho-L-serine]
- Reduce F Biofilm [4, 13]: ● (a single dot [ie. •] signifies minor effect (from about 10 to about 30% change))
- inhibition at 1 % [2, 12]: 10 to 30%
- Anti-biofilm effect against fungal biofilms (reduction) [3]: less than twofold

SMILES: O=C(O)[C@@H]1CCCN1 [Proline, L-proline]
- Reduce F Biofilm [4, 13]: ● (a single dot [ie. •] signifies minor effect (from about 10 to about 30% change))
- activation at 1 % ([2]; disruption assay, S. aureus, 1% amino acid (unless specifically noted), p≤0.001, read-out: Promote B Biofilm): 10 to 30%
- Anti-biofilm effect against fungal biofilms (reduction) [3]: less than twofold
- Effect on bacterial biofilm growth [10]: support (improve) bacterial biofilm growth

SMILES: CC(C)[C@H](N)C(=O)O [Valine, L-valine]
- Promote F Biofilm [1, 11]: ● (a single dot [ie. •] signifies minor effect (from about 10 to about 30% change))
- inhibition at 1 % [2, 12]: 10 to 30%
- Effect on fungal biofilm growth [3]: support (improve) fungal biofilm growth
